Results: patent US20150065436A1, “INHIBITING INTERACTION BETWEEN HIF-1ALPHA AND p300/CBP WITH HYDROGEN BOND SURROGATE-BASED HELICES” (UNIVERSITY OF SOUTHERN CALIFORNIA, priority 2013, published 2015)

How the values were obtained:
LOX = assay: Real-time qRT-PCR of LOX expression in hypoxic HeLa cells; type: cell-based, human; settings: hypoxia
p300-CH1 = target: T1, p300-CH1 (Homo sapiens, UniProt Q09472); assay: Tryptophan fluorescence binding assay; settings: for Kd: 15N-labeled p300 CH1 domain, Trp403 fluorescence, read-out: dissociation constant, Kd
T1 construct: human p300 CH1 domain (amino acid residues 323-423); GST (cleaved yes); made in house; host or cells: E. coli BL21 (DE3)
T1 sequence (Q09472 323-423): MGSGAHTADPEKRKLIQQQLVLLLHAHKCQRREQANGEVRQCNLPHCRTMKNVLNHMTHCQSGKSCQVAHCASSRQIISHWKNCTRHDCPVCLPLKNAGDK
Excerpt: The DNA sequence of human p300 CH1 domain ([…]) was designed as an insert and subcloned into a pUC57 plasmid by Genscript, Inc. After transformation of the plasmid in JM109 bacteria (Promega), the gene sequence was subcloned into BamHI and EcoRI restriction sites of pGEX-4T-2 expression vector (Amersham). The pGEX 4T-2-p300 fusion vector was transformed into BL21 (DE3)-competent E. coli (Novagen) in M9 minimal media with ^15NH4Cl as the main nitrogen source. Protein production was induced with 1 mM IPTG at O.D. 600 of 1 for 16 hours at 15° C. Production of the desired p300-CH1-GST fusion product was verified by SDS-PAGE. Bacteria were harvested and resuspended in the lysis buffer with 20 mM Phosphate buffer (Research Products International, Corp.), 100 μM DTT (Fisher), 100 μM ZnSO4 (Sigma), 0.5% TritonX 100 (Sigma), […] Pepstatin A (Research Products International, Corp.), […] Leupeptin A (Research Products International, Corp.), 500 μM PMSF (Sigma), and 0.5% glycerol at pH 8.0. Pellets were lysed by sonication and centrifuged at 4° C., 20,000 rpm, for 20 minutes. Fusion protein was collected from the bacterial supernatant and purified by affinity chromatography using glutathione Sepharose 4B beads (Amersham) prepared according to the manufacturer's directions. GST-tag was cleaved by thrombin and protein was eluted from resin. […] Spectra were recorded on a QuantaMaster 40 spectrofluorometer (Photon Technology International) in a 10 mm quartz fluorometer cell at 25° C. with 4 nm excitation and 4 nm emission slit widths from 200 to 400 nm at intervals of 1 nm/s. Samples were excited at 295 nm and fluorescence emission was measured from 200-400 nm and recorded at 335 nm. Peptide stock solutions were prepared in DMSO. Aliquots containing 1 μL DMSO stocks were added to 400 μL of 1 μM p300-CH1 in 50 mM Tris and 100 mM NaCl (pH 8.0). After each addition, the sample was allowed to equilibrate for 5 minutes before UV analysis. Background absorbance and sample dilution effects were corrected by titrating DMSO into p300-CH1 in an analogous manner. Final fluorescence is reported as the absolute value of [(F1-F0)/F1]*100, where F1 is the final fluorescence upon titration and F0 is the fluorescence of the blank DMSO titration. EC50 values for each peptide were determined by fitting the experimental data to a sigmoidal dose-response nonlinear regression model on GraphPad Prism 5.0, and the dissociation constants, KD, were obtained from equation (1) […] The affinity of peptides for the ^15N-labeled p300 CH1 domain was evaluated using tryptophan fluorescence spectroscopy. […] The binding affinity of HIF-1αC-TAD to CH1 in this assay is consistent with that obtained from a fluorescence polarization assay using fluorescein-labeled HIF-1αC-TAD (FIG. 11 and FIG. 12) and those using isothermal titration microcalorimetry.

HeLa cells = assay: MTT cell viability assay; type: cell-based, human; settings: 1 to 100 μM, 24 hours
Experimental: HeLa cells were plated in a 96-well plate at a density of 6,000 cells/well and allowed to form a monolayer before adding the compounds. […] After 3 hours of incubation, the media was removed and purple crystals were dissolved in 100 μL of dimethyl sulfoxide (DMSO). The absorbance was measured at 570 nm with a correction at 690 nm in order to quantify the amount of formed purple formazan. All experiments were performed in quadruplicate.
HBS 1 is an efficient modulator of contacts between HIF-1α and p300/CBP. Known inhibitors of this interaction typically function allosterically, by inducing unfolding of p300/CBP through abstraction of zinc ions. This could lead to non-specific abstraction of metal ions from other biomolecules (Block et al., “Direct Inhibition of Hypoxia-Inducible Transcription Factor Complex With Designed Dimeric Epidithiodiketopiperazine,” J. Am. Chem. Soc. 131(50):18078-88 (2009), which is hereby incorporated by reference in its entirety). It was predicted that the HIF-1α mimetics should manifest their function in a more specific manner, and should not be generally cytotoxic. Cell viability assays confirm this hypothesis. […] Thus, HBS 2 may not just be a straightforward lower affinity analog of HBS 1 as designed.

With `CC(C)C[C@@H]1NC(=O)[C@H](CCC(=O)O)NC(=O)CCC=CCN([C@@H](C)C(=O)N[C@@H](CCCNC(=N)N)C(=O)N[C@@H](C)C(=O)N[C@@H](C)C(=O)N[C@@H](CC(=O)O)C(=O)N[C@@H](CCC(N)=O)C(N)=O)C1=O` [HBS 2, XELA*RAADQ-NH2] as the compound, how does the “activity on LOX expression” value (LOX; concentration not given) read?
The value was “no activity”.

And the Kd (p300-CH1)?
Its Kd is 2820 ± 140 nM.

What about the “binding affinity relative to HBS 1” value (p300-CH1; CH1 domain, compared with HBS 1) of the same compound?
The value was “four-fold weaker”.

And the cytotoxicity (HeLa cells)?
The cytotoxicity was “higher level of cytotoxicity than HBS 1”.

With `CC(C)C[C@H](NC(=O)[C@H](C)NC(=O)[C@H](CCCNC(=N)N)NC(=O)[C@H](C)N1CC=CCCC(=O)N[C@@H](CCC(=O)O)C(=O)N[C@@H](CC(C)C)C1=O)C(=O)N[C@@H](CC(=O)O)C(=O)N[C@@H](CCC(N)=O)C(N)=O` [HBS 1, XELA*RALDQ-NH2] as the compound, how does the “downregulation of LOX expression” value (LOX; 10 μM (first of two doses)) read?
Its value is 55%.

And the “downregulation of LOX expression” value (LOX; 50 μM (second of two doses))?
Its value is 70%.

What about the Kd (p300-CH1) of the same compound?
Its Kd is 690 ± 25 nM.

And the “increase in binding affinity by stabilization of the peptide conformation” value (p300-CH1; HBS 1 versus unconstrained peptide 3)?
The value was 9 fold.

And the cytotoxicity (HeLa cells)?
The cytotoxicity was “essentially non-cytotoxic”.
